From ChEMBL document CHEMBL6096636 (Bioorg Med Chem, 2024)
Calls of active or inactive are those of the source. The rule behind the calls is not given here.

How the values were obtained:
[1] = Cytotoxicity against human HepG2 cells assessed as inhibition of cell growth incubated for 72 hrs by CCK8 assay; format: toxicity, cell-based
[2] = Cytotoxicity against HEK293T cells assessed as inhibition of cell growth incubated for 72 hrs by CCK8 assay; format: toxicity, cell-based, HEK-293T; conditions: human
[3] = Selectivity index, ratio of IC50 for HEK293T cells to IC50 for erythrocytic stage of Plasmodium falciparum 3D7; format: toxicity, cell-based; conditions: human, read-out: Ratio IC50
Plasmodium falciparum [4] = experiment: Antimalarial activity against sulfadoxine-pyrimethamine and mefloquine resistant Plasmodium falciparum clinical isolate CP286 assessed as inhibition of growth incubated for 72 hrs by SYBR green I based assay; format: functional, organism-based
Plasmodium falciparum [5] = experiment: Inhibition of asynchronous ring stage Plasmodium falciparum 3D7 HDAC assessed as increase in histone H3 acetylation level at 20 times of IC50 concentration incubated for 2 hrs by Western blot analysis
Histone deacetylase 1 = Histone deacetylase 1 (Homo sapiens, UniProt Q13547); experiment: Inhibition of recombinant human HDAC1 using Ac-peptide as substrate preincubated for 15 mins followed by substrate addition and measured after 60 mins
Histone deacetylase 1, sequence (Q13547 whole entry): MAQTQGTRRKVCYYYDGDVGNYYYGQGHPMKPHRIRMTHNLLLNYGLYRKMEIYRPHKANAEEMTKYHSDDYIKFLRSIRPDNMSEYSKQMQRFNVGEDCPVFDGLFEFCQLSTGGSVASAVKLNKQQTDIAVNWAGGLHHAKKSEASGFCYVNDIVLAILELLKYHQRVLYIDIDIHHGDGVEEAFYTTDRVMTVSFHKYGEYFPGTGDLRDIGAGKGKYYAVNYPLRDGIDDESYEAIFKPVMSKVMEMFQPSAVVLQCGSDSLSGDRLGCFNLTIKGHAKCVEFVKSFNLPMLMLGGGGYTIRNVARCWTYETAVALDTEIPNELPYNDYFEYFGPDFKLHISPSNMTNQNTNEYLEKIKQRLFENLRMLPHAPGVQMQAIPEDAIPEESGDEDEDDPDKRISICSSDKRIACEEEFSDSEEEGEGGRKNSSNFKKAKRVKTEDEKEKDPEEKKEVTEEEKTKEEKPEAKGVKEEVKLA

Histone deacetylase 2 = Histone deacetylase 2 (Homo sapiens, UniProt Q92769); experiment: Inhibition of recombinant human HDAC2 using Ac-peptide as substrate preincubated for 15 mins followed by substrate addition and measured after 60 mins
Histone deacetylase 2, sequence (Q92769 whole entry): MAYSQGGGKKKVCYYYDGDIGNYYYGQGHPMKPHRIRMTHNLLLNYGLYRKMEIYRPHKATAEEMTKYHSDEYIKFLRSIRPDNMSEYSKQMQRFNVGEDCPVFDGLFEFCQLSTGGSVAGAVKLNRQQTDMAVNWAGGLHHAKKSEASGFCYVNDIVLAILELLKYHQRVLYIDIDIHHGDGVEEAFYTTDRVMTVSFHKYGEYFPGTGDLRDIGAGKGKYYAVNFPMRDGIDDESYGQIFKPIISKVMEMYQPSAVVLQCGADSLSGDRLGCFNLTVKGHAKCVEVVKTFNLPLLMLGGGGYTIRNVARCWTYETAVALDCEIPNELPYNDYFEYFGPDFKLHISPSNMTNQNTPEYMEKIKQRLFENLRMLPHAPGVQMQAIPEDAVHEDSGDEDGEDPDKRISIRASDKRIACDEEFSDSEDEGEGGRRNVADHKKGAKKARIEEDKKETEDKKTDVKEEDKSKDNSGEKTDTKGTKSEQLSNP

Histone deacetylase 3 = Histone deacetylase 3 (Homo sapiens, UniProt O15379); experiment: Inhibition of recombinant human HDAC3 using Ac-peptide as substrate preincubated for 15 mins followed by substrate addition and measured after 60 mins
Histone deacetylase 3, sequence (O15379 whole entry): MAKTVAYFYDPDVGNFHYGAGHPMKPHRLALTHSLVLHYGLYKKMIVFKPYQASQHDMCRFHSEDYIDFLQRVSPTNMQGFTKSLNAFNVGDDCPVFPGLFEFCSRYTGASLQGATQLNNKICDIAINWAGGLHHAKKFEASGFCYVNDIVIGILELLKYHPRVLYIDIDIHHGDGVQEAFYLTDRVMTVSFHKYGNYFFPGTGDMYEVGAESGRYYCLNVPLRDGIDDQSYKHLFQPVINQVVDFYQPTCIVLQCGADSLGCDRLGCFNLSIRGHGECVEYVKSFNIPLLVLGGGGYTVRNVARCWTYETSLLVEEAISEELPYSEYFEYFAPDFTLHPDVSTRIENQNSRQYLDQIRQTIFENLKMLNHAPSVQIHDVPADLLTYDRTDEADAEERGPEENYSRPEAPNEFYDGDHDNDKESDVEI

[6] = molecular target: T1, Protein deacetylase HDAC6 (Homo sapiens, UniProt Q9UBN7); experiment: Inhibition of recombinant human HDAC6 using Ac-peptide as substrate preincubated for 15 mins followed by substrate addition and measured after 60 mins
T1 sequence (Q9UBN7 whole entry): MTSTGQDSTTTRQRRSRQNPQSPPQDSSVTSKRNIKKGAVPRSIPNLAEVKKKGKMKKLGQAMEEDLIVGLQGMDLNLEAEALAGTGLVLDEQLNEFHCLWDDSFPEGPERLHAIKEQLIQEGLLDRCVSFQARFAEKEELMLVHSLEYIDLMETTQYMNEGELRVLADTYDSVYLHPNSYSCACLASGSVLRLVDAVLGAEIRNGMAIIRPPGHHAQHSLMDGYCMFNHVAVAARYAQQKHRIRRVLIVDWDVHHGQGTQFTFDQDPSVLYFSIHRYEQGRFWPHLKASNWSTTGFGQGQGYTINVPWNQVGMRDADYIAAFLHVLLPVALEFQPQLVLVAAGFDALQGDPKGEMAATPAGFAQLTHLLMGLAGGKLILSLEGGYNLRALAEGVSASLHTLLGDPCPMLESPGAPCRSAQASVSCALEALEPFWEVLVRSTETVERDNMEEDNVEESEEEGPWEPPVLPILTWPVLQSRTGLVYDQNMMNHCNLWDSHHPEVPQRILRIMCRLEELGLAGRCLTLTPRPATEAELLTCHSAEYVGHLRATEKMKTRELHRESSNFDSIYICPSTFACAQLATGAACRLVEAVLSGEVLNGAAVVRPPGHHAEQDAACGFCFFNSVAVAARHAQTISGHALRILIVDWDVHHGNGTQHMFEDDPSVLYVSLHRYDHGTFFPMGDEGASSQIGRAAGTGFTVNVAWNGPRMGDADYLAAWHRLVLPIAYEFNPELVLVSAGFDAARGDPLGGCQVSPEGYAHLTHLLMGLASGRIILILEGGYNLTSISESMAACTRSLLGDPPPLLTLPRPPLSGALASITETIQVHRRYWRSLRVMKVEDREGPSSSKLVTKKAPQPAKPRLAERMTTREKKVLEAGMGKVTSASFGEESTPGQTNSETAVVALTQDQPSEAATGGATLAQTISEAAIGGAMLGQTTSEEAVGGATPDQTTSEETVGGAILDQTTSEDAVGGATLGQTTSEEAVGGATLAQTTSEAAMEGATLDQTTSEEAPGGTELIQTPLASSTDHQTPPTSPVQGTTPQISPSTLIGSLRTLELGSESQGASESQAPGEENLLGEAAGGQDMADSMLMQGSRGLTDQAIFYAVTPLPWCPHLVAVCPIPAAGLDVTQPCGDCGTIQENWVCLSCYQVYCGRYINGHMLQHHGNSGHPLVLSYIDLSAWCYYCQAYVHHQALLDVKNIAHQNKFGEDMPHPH

Histone deacetylase 8 = molecular target: T2, Histone deacetylase 8 (Homo sapiens, UniProt Q9BY41); experiment: Inhibition of recombinant human HDAC8 using Ac-peptide as substrate preincubated for 15 mins followed by substrate addition for 240 mins and measured after 120 mins of trypsin addition
T2 sequence (Q9BY41 whole entry): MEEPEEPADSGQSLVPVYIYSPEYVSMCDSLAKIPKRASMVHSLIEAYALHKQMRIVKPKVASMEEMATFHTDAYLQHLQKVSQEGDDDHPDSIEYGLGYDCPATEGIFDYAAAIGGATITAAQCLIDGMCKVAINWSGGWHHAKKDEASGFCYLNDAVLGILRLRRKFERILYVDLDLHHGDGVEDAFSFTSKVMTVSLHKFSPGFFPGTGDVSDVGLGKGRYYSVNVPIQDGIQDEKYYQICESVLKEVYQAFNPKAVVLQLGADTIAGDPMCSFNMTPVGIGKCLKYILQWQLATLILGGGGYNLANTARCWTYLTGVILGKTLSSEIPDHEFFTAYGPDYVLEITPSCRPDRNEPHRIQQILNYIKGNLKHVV

[7] = molecular target: T3, NAD-dependent protein deacetylase sirtuin-2 (Homo sapiens, UniProt Q8IXJ6); experiment: Inhibition of recombinant human SIRT2 using Ac-peptide as substrate preincubated for 15 mins followed by substrate addition for 240 mins and measured after 120 mins of trypsin addition
T3 sequence (Q8IXJ6 whole entry): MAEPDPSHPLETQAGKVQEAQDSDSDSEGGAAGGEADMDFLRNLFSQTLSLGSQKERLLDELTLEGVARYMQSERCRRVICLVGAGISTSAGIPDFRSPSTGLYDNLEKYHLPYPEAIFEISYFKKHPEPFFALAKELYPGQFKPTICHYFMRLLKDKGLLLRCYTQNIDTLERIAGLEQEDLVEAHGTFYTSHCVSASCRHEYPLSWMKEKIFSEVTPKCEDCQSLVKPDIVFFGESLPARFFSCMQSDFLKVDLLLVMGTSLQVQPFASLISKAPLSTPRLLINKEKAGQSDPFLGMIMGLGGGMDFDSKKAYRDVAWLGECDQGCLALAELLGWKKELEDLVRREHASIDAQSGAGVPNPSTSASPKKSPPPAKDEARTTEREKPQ

[8] = Metabolic stability in mouse liver microsomes assessed as half-life measured upto 45 mins in presence of NADPH by LC-MS/MS analysis; format: ADME, Microsome
[9] = Metabolic stability in mouse liver microsomes assessed as clearance measured upto 45 mins in presence of NADPH by LC-MS/MS analysis; format: ADME, Microsome; conditions: read-out: CLH
Plasmodium yoelii [10] = experiment: Antimalarial activity against erythrocytic stage of Plasmodium yoelli infected in female mouse model assessed as reduction in parasitemia at 30 mg/kg, ip pre-infected with parasite followed by twice daily compound administration from day 3 to 6 by microscopic analysis; format: functional, organism-based; conditions: time 4.0 day
[11] = Toxicity in female mouse model infected with erythrocytic stage of Plasmodium yoelli assessed as animal death at 30 mg/kg, ip pre-infected with parasite followed by twice daily compound administration from day 3 to 6; format: organism-based; conditions: in vivo, 96 h, time 4 day
Plasmodium falciparum [12] = experiment: microbe, parasite or virus in culture; conditions: 3D7, 72 h
Description: Antimalarial activity against erythrocytic stage of Plasmodium falciparum 3D7 assessed as inhibition of growth incubated for 72 hrs by SYBR green I based assay

Plasmodium falciparum [13] = experiment: microbe, parasite or virus in culture; conditions: Dd2, 72 h
Description: Antimalarial activity against erythrocytic stage of chloroquine-resistant Plasmodium falciparum Dd2 assessed as inhibition of growth incubated for 72 hrs by SYBR green I based assay

Plasmodium falciparum [14] = experiment: microbe, parasite or virus in culture; conditions: 72 h
Description: Antimalarial activity against chloroquine resistant Plasmodium falciparum clinical isolate GB4 assessed as inhibition of growth incubated for 72 hrs by SYBR green I based assay

Plasmodium falciparum [15] = experiment: microbe, parasite or virus in culture; conditions: 72 h; remark: listed apart in the source
Description: Antimalarial activity against quinine and chloroquine resistant Plasmodium falciparum clinical isolate C2A assessed as inhibition of growth incubated for 72 hrs by SYBR green I based assay

[16] = Resistance index, ratio of IC50 for chloroquine resistant Plasmodium falciparum clinical isolate GB4 to IC50 for erythrocytic stage of Plasmodium falciparum 3D7; format: functional
[17] = Resistance index, ratio of IC50 for quinine and chloroquine resistant Plasmodium falciparum clinical isolate C2A to IC50 for erythrocytic stage of Plasmodium falciparum 3D7; format: functional
[18] = Resistance index, ratio of IC50 for sulfadoxine-pyrimethamine and mefloquine resistant Plasmodium falciparum clinical isolate CP286 to IC50 for erythrocytic stage of Plasmodium falciparum 3D7; format: functional
Plasmodium yoelii [19] = experiment: Antimalarial activity against erythrocytic stage of Plasmodium yoelli infected in female mouse model assessed as reduction in parasitemia at 60 mg/kg, ip pre-infected with parasite followed by once daily compound administration from day 3 to 6 by microscopic analysis; format: functional, organism-based; conditions: time 4.0 day
[20] = Toxicity in female mouse model at 150 mg/kg, ip administered as single dose; format: organism-based; conditions: in vivo
[21] = Toxicity in female mouse model infected with erythrocytic stage of Plasmodium yoelli assessed as animal death at 30 mg/kg, ip pre-infected with parasite followed by […] compound administration from day 3 to 6; format: organism-based; conditions: in vivo, 96 h, time 4 day
[22] = Tmax in female Balb/c mouse at 5 mg/kg, ip measured after 24 hrs by LC-MS/MS analysis; format: ADME, organism-based; conditions: in vivo

Structure (SMILES)	IC50 (Plasmodium falciparum [4])	inhibition (Plasmodium falciparum [5])	IC50 [7]	half-life [8]	Activity (Plasmodium yoelii [10])	IC50 (Plasmodium falciparum [12])	IC50 (Plasmodium falciparum [13])	IC50 (Plasmodium falciparum [14])	IC50 (Plasmodium falciparum [15])	other results
COc1ccc2c(CN[C@H]3CC[C@@H](Nc4ncc(C(=O)NO)cn4)CC3)cn(C)c2c1.Cl	38.7 nM	Active	> 10000 nM	48 min	Active; Only Slight Recurrence Of Parasitemia Was Observed Upon Cessation Of Treatment	2.7 nM	12.8 nM	27.2 nM	22.7 nM	IC50 at 72 h [1]: 12800 nM; IC50 at 72 h [2]: > 10000 nM; selectivity ratio [3]: > 867; IC50 (Histone deacetylase 1): 9.1 nM; IC50 (Histone deacetylase 2): 14 nM; IC50 (Histone deacetylase 3): 21 nM; IC50 [6]: 90 nM; IC50 (Histone deacetylase 8): 30 nM; CLint scaled [9]: 114 mL/min/kg; Activity [11]: Toxic
C[C@H]1[C@@H](O)O[C@@H]2O[C@@]3(C)CC[C@H]4[C@H](C)CC[C@@H]1[C@@]24OO3 [ARTENIMOL]	5.6 nM	–	–	–	–	2.7 nM	2.68 nM	3.2 nM	3.7 nM	Ratio IC50 [16]: 1.2; Ratio IC50 [17]: 1.4; Ratio IC50 [18]: 2.1
Cn1cc(CNCC2CCN(c3ncc(C(=O)NO)cn3)CC2)c2ccccc21 [QUISINOSTAT]	–	Active	> 10000 nM	13.3 min	Not active; Mild Recurrence Of Parasitemia Post-Treatment Cessation Observed	5.2 nM	–	1.7 nM	–	Activity (Plasmodium yoelii [19]): Active; Significant Recurrence Of Parasitemia Observed; Activity [20]: Toxic; Activity [21]: Toxic; Tmax [22]: 4.98 min
